Experimental data reported in patent US20090233893A1, “Methods of Dissolving Beta-Sheet Proteins and Uses Thereof” (priority 2006, published 2009).
Several values for one entry are separate records, joined by “and”; a condition that tells them apart may be missing. Identical values can stand only once. Marks after values point to notes of the source that are not given here.

Assays:
Aβ 40 wild type peptide = molecular target: T1, Aβ 40 wild type peptide (Homo sapiens, UniProt P05067); test: Dissolution of Aβ 40 wild type peptide by metallized chelator, FTIR amide bands; type: biochemical; details: Aβ40 wt dissolved in 500 mM chelator/heavy water solution
T1 construct: The amide I band for the Aβ 40 wild type peptide; gift of Dr. Jorge Ghiso
Protocol: (§1) Each metal salt-chelator solution was prepared with a slight excess of metal salt. Chelator-dissolved proteins were then lyophilized twice to eliminate water and resuspended in 200 μl aliquots of heavy water for spectral analysis.
(§2) Fourier Transform Infrared (FTIR) Spectroscopy: Metal chelator-dissolved β-sheet samples were injected into a sample cell with calcium fluoride windows and 0.05 mm path length. The instrument (Nicolet Magna JR 560 Spectrometer, ThermoNicolet, Madison, Wis.) resolution was 4 cm^−1; 1000 scans were collected.
(§3) Spectral subtraction as well as curve fitting and second derivative analysis of the amide I bands was carried out with the software program, Grams/32 Spectral Notebase, version 4.02, level 1 (ThermoNicolet, Madison, Wis.). Curvefitting parameters were not restricted; the fraction of Lorentzian line shape was allowed to vary. The second derivative analysis was carried out using a Savitsky-Golay algorithm, using either a third or fourth degree polynomial fit.

[1] = molecular target: T2, Aβ 40 E22Q mutant peptide (Homo sapiens, UniProt P05067, E693Q); test: Dissolution of Aβ 40 E22Q mutant peptide by metallized chelator, FTIR amide bands; type: biochemical; details: Aβ40 E22Q dissolved in 500 mM chelator/heavy water solution
T2 sequence (P05067 672-711 E693Q): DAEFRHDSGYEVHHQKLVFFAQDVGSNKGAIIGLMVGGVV
Protocol: as §1, §2, §3

Aβ 42 wild type peptide = molecular target: T3, Aβ 42 wild type peptide (Homo sapiens, UniProt P05067); test: Dissolution of Aβ 42 wild type peptide by metallized chelator, FTIR amide bands; type: biochemical; details: Aβ42 wt dissolved in 500 mM chelator/heavy water solution
T3 construct: The amide I band for the Aβ 42 wild type peptide in the solid state; gift of Dr. Jorge Ghiso
Protocol: as §1, §2, §3

[2] = molecular target: T4, Aβ 42 E22Q mutant peptide (Homo sapiens, UniProt P05067, E693Q); test: Dissolution of Aβ 42 E22Q mutant peptide by metallized chelator, FTIR amide bands; type: biochemical; details: Aβ42 E22Q dissolved in 500 mM chelator/heavy water solution
T4 sequence (P05067 672-713 E693Q): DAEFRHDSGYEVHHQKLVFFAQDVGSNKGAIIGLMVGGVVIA
Protocol: as §1, §2, §3

Aβ 40 E22Q = Aβ 40 E22Q (Homo sapiens, UniProt P05067, E693Q); type: biochemical; details: Aβ 40 E22Q incubated at room temperature for 67 hours, pH 7.4
wool = wool tertiary structure is a bundle of α-helices; selectivity
From the text: Wool's tertiary structure is a bundle of α-helices. […] The polyproline II conformation of collagen places its dihedral angles in the immediate vicinity of those for the β-sheet structure on a Ramachandran plot. Thus, choice of cation confers selectivity.

B. mori fibroin = details: for Dissolution of fibroin: basic 500 mM solution, 1:1 molar ratio
[3] = system: tau paired helical filaments; details: basic 500 mM solution, 1:1 molar ratio
[4] = Environmental Protection Agency (1999); cited from earlier work
human erythrocytes = details: Funder et al., 1978; cited from earlier work

Compound	Amide I peak of metal chelator-dissolved peptide (Aβ 40 wild type peptide)	Amide II peak of metal chelator-dissolved peptide (Aβ 40 wild type peptide)	Amide I peak of metal chelator-dissolved peptide [1]	Amide II peak of metal chelator-dissolved peptide [1]	Amide I peak of metal chelator-dissolved peptide (Aβ 42 wild type peptide)	Amide II peak of metal chelator-dissolved peptide (Aβ 42 wild type peptide)	Amide I peak of metal chelator-dissolved peptide [2]	Amide II peak of metal chelator-dissolved peptide [2]	Thioflavin T fluorescence yield less than that of the chelator-free aliquot (Aβ 40 E22Q)	Dissolution of wool (wool)	Dissolution of fibroin (B. mori fibroin)	Speed of the dissolution process for the silk or fibroin fiber (B. mori fibroin; judged by eye, more rapid than in the Li^+ ethylene diamine bromide solution)	Dissolution of paired helical filaments [3]	Toxicity, EPA determination [4]	Increase of lithium influx into human erythrocytes over lithium chloride (human erythrocytes)
NCCN.[Cu+2].[OH-].[OH-] [Cu^2+en, Cu^2+ ethylene diamine hydroxide]	1673 cm⁻¹	1594 cm⁻¹	1673 cm⁻¹	1590 cm⁻¹	1673 cm⁻¹	1534 cm⁻¹ and 1591 cm⁻¹	1673 cm⁻¹	1590 cm⁻¹	27%	not found to dissolve	can be dissolved	instantaneous on contact	can be dissolved	safe for human consumption	–
NCCN.[Br-].[Li+] [Li^+en, Li^+ ethylene diamine bromide]	1629 cm⁻¹ and 1646 cm⁻¹ and 1673 cm⁻¹	1562 cm⁻¹	1621‡ cm^−1 and 1673 cm^−1	1531 cm⁻¹	1626‡ cm^−1 and 1673 cm^−1	1562 cm⁻¹	1625‡ cm^−1 and 1673 cm^−1	1531 cm⁻¹	–	not found to dissolve	can be dissolved	–	can be dissolved	–	–
O=C([O-])O.[Li+] [Lithium bicarbonate]	–	–	–	–	–	–	–	–	–	–	–	–	–	–	twelve-fold
